Data: patent publication US20250026765A1, “SPIROHETEROCYCLE DERIVATIVE HAVING SEROTONIN RECEPTOR BINDING ACTIVITY” (Shionogi & Co., Ltd., priority 2021, published 2025)
Read-outs that look alike come from different tables or passages of the source.

Tests used:
[1] = target: human recombinant 5-HT2A receptor (Homo sapiens (Human), UniProt P28223); test: 5-HT2A receptor binding inhibition test ([3H]-Ketanserin); conditions: Jump-In HEK cell membrane, 25° C. 1.5 hours
Summary of the method: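 Membranes from Jump-In HEK cells expressing the receptor were incubated with [3H]-ketanserin at about its Kd (from Scatchard analysis) in Tris-HCl pH 7.4 buffer for 1.5 h at 25° C, then filtered and counted. Non-specific binding was defined with 500 μmol/L serotonin, and Ki was taken from dose-response curves.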

[2] = target: human recombinant 5-HT2C receptor (Homo sapiens (Human), UniProt P28335); test: 5-HT2C receptor binding inhibition test ([3H]-Mesulergine); conditions: Jump-In HEK cell membrane, 37° C. 2 hours
Summary of the method: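 Radioligand displacement on HEK membranes expressing human recombinant 5-HT2C (0.5 μg/well), [3H]-mesulergine near its Kd, in pH 7.4 Tris-HCl buffer with NaCl, MgCl2, KCl, CaCl2 and 0.1% BSA, 2 h at 37° C. Bound radioactivity measured after GF/B filtration; non-specific binding defined with 500 μmol/L serotonin, Ki from dose-response curve.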

[3] = read-out: human serotonin 5-HT2A receptor binding activity Ki
[4] = read-out: human serotonin 5-HT2C receptor binding activity Ki

Chain of human recombinant 5-HT2A receptor (P28223 whole entry): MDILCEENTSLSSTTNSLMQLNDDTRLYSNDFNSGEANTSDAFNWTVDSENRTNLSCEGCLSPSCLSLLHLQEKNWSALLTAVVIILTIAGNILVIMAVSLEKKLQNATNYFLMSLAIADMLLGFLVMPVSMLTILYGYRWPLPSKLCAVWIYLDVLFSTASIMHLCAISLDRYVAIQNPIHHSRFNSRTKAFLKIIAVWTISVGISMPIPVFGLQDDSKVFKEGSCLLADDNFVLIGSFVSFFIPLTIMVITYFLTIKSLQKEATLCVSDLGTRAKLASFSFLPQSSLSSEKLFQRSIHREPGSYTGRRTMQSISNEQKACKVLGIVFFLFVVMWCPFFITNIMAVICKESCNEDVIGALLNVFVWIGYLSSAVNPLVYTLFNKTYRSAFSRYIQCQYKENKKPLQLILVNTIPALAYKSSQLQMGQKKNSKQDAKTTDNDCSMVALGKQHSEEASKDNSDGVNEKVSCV
Chain of human recombinant 5-HT2C receptor (P28335 33-458): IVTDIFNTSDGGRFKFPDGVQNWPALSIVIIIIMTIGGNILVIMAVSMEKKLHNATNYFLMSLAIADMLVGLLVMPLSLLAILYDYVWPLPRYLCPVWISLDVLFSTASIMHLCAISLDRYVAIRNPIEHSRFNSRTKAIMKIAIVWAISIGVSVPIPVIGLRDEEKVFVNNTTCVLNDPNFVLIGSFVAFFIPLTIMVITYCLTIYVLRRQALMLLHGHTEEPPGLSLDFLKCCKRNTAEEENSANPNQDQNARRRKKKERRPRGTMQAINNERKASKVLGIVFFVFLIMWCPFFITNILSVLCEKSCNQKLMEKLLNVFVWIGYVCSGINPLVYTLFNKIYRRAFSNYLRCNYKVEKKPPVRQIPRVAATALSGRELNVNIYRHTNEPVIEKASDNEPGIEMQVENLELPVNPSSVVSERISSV

Structure (SMILES) | Ki ([1]; read-out: h-5-HT2A Ki) | Ki ([2]; read-out: h-5-HT2C Ki) | Ki [1, 3] | Ki [2, 4]
CCCOc1ccc(CN(Cc2coc(C)n2)C2=NOC3(CCNCC3)N2)c(Cl)c1 [Compound I-129] | < 10 nM | < 10 nM | – | –
CCCCOc1ccc(CN(Cc2coc(C)n2)C2=NOC3(CCN(C)CC3)N2)c(Br)c1 [Compound I-092] | < 10 nM | < 10 nM | – | –
Cc1nc(CN(Cc2ccc(OCC(C)C)cc2)C2=NOC3(CCNCC3)N2)co1 [Compound I-048] | < 10 nM | < 10 nM | – | –
CC(C)COc1ccc(CN(Cc2ccn(C)n2)C2=NC(=O)C3(CCN(C)CC34CC4)N2)cc1 (racemic) [Compound I-043] | 10 to 100 nM | 10 to 100 nM | – | –
CCCOc1ccc(CN(Cc2coc(C)n2)C2=NOC3(CCN(C)CC3)N2)cc1 [Compound I-028] | < 10 nM | < 10 nM | – | –
Cc1nc(CN(Cc2cn3ccccc3n2)C2=NOC3(CCN(C)CC3)N2)co1 [Compound I-091] | 10 to 100 nM | 100 to 500 nM | – | –
Cc1nc(CN(Cc2ccc(OCC(F)F)cc2)C2=NOC3(CCN(C)CC3)N2)co1 [Compound I-066] | < 10 nM | < 10 nM | – | –
CC(C)COc1ccc(CN(Cc2ccn(C)n2)C2=NC(=O)C3(CCN(C)CC3)N2)cc1 [Compound I-033] | – | – | 10.1 nM | 19 nM
Cc1nc(CN(Cc2ccc(OCC(C)C)c(F)c2)C2=NOC3(CCNCC3)N2)co1 [Compound I-130] | – | – | 1.29 nM | 0.535 nM
CC(C)COc1ccc(CC2=NOC3(CCN(C)CC3)N2Cc2ccc(F)cc2O)cc1 [Compound I-004] | < 10 nM | 10 to 100 nM | – | –
Cc1nc(CN(Cc2ccc(OCC(C)C)cc2)C2=NOC3(CCN(C)CC3)N2)co1 [Compound I-011] | – | – | 1.22 nM | 0.585 nM
Cc1ccc2cc(CN(Cc3coc(C)n3)C3=NOC4(CCN(C)CC4)N3)sc2c1 [Compound I-101] | < 10 nM | < 10 nM | – | –
Cc1nc(CN(Cc2ccc(OCC(C)C)c(F)c2)C2=NOC3(CCN(C)CC3)N2)co1 [Compound I-127] | < 10 nM | < 10 nM | – | –
CC(C)COc1ccc(CC2=NOC3(CCN(C)CC3)N2Cc2ccc(F)cc2)cc1 [Compound I-001] | – | – | 4.82 nM | 16.7 nM
Cc1nc(CN(Cc2cccs2)C2=NOC3(CCN(C)CC3)N2)co1 [Compound I-069] | 10 to 100 nM | < 10 nM | – | –
CC(C)COc1ccc(CN(Cc2ccc(F)cn2)C2=NC(=O)C3(CCN(C)CC34CC4)N2)cc1 (racemic) [Compound I-042] | 10 to 100 nM | 10 to 100 nM | – | –
CC(C)COc1ccc(CN(Cc2ccn(C)n2)C2=NOC3(CCNCC3)N2)cc1 [Compound I-036] | < 10 nM | < 10 nM | – | –
CCCOc1ccc(CC2=NOC3(CCN(C)CC34CC4)N2Cc2ccn(C)n2)cc1 (single isomer, unassigned) [Compound I-045] | 10 to 100 nM | 100 to 500 nM | – | –
Cc1nc(CN(Cc2nc3ccccc3s2)C2=NOC3(CCN(C)CC3)N2)co1 [Compound I-098] | < 10 nM | 10 to 100 nM | – | –
Cc1cccc(CN(Cc2ccc(OCC(C)C)cc2)C2=NOC3(CCN(C)CC3)N2)n1 [Compound I-013] | 10 to 100 nM | 10 to 100 nM | – | –
CC(C)COc1ccc(CN(Cc2cnn(C)n2)C2=NOC3(CCN(C)CC3)N2)c(F)c1 [Compound I-106] | < 10 nM | < 10 nM | – | –
CC(C)COc1ccc(CN(Cc2ccn(C(F)F)n2)C2=NOC3(CCN(C)CC3)N2)cc1 [Compound I-015] | < 10 nM | 10 to 100 nM | – | –
Cc1nc(CN(Cc2cc3ccccc3o2)C2=NOC3(CCN(C)CC3)N2)co1 [Compound I-099] | – | – | 0.96 nM | 3.08 nM
CCOCc1ccc(CN(Cc2coc(C)n2)C2=NOC3(CCN(C)CC3)N2)cc1 [Compound I-124] | 10 to 100 nM | 10 to 100 nM | – | –
CCCOc1ccc(CN(Cc2ccn(C)n2)C2=NOC3(CCN(C)CC3)N2)cc1 [Compound I-014] | < 10 nM | 10 to 100 nM | – | –
CC(C)COc1ccc(CN(Cc2cocn2)C2=NOC3(CCN(C)CC3)N2)cc1 [Compound I-031] | 10 to 100 nM | 10 to 100 nM | – | –
Cc1nc(CN(Cc2ccc(OCC(C)C)cc2)C2=NC3(CCN(C)CC3)ON2C)co1 [Compound I-052] | 100 to 500 nM | 100 to 500 nM | – | –
CC(C)COc1ccc(CN(Cc2ccc(F)cc2)C2=NC3(CCN(C)CC3)CO2)cc1 [Compound I-020] | 10 to 100 nM | 100 to 500 nM | – | –
CC(C)COc1ccc(CN(C2=NOC3(CCN(C)CC3)N2)C(C)c2ccc(F)cc2)cc1 (single isomer, unassigned) [Compound I-074] | 100 to 500 nM | 100 to 500 nM | – | –
CCCCOc1ccc(CN(Cc2cnn(C)n2)C2=NOC3(CCN(C)CC3)N2)c(F)c1 [Compound I-112] | < 10 nM | < 10 nM | – | –
